Here are results for 40 molecules from patent publication US20230202989A1, “COMPOUNDS” (JANSSEN PHARMACEUTICA NV, priority 2020, published 2023).

One experiment deals with TNF. Briefly: PBMC assay: TNF cytokine levels after LPS stimulation (MSD). It is filed as cell-based. The note with it: human PBMCs, 100 ng/ml LPS for 6 hrs. Here is the method: (§1) Peripheral venous blood s collected from health individuals and human peripheral blood mononuclear cells (PBMCs) ere isolated from blood by Ficoll Histopaque (Sigma-Aldrich, A0561) density gradient centrifugation. After isolation, PBMCs were stored in liquid nitrogen for later use. Upon thawing, PBMC cell viability was determined in growth medium (RPMI media supplemented with 10% fetal bovine serum, 1% Pen-Strep and 1% L-glutamine). Compounds were spotted in a 1:3 serial dilution in DMSO and diluted to the final concentration in 30 μl medium in 96 well plates (Falcon, 353072). PBMCs were added at a density of 7.5×10^4 cells per well and incubated for 30 min in a 5% CO2 incubator at 37° C. LPS stimulation was performed by addition of 100 ng/ml LPS (final concentration, Invivogen, tlrl-smlps) for 6 hrs followed by collection of cellular supernatant and the analysis of IL-1β (μM) and TNF cytokines levels (μM) via MSD technology according to manufacturers' guidelines (MSD, K151A0H).
(§2) The IC50 values (for IL-1β) and EC50 values (TNF) were obtained on compounds of the invention/examples, and are depicted in the following table: […]

In the next experiment the test system is IL-1β. Briefly: PBMC assay: inhibition of IL-1β release after LPS stimulation (MSD). It is filed as cell-based. To be noted: human PBMCs, read-out: IL1β IC50. The protocol: as §1, with “Compounds were spotted in a 1:3 serial dilution in DMSO and diluted to the final concentration in 30 μl medium in 96 well plates (Falcon, 353072).” left out
as §2

[1] abbreviates: Homo sapiens, PBMC, 6 h, 100 ng/ml LPS for 6 hrs, MSD, 96 well plates.
The mark [2] stands for this setting: Homo sapiens, PBMC, LPS stimulation, 384 well plate.

Where two headings read alike, the source gives them in different places. Some results are limits rather than exact numbers.

As a reminder, the EC50 is the midpoint of the concentration-response curve. A low value points to a more potent agent. In general, IC50 refers to the point on the concentration scale where inhibition reaches its midpoint. Turning to `CC(C)c1nn(CC(=O)N[C@@H]2C[C@H](O)CN(C)C2)c(=O)c2ccc(C(F)(F)F)cc12` (mixture of isomers) [Final Cpd X133], the concentration giving a half-maximal response (EC50) in the experiment on TNF is more than 20 µM. In addition, the IC50 in the experiment with IL-1β (100 ng/ml LPS for 6 hrs, MSD, 96 well plates) is 3380 nM.
In turn, `CC(C)c1nn(CC(=O)N[C@H]2COC[C@H](O)C2)c(=O)c2ccc(C(F)(F)F)cc12` (mixture of isomers) [Final Cpd X148] came in with a half-maximal effective concentration (EC50) in the experiment on TNF (Homo sapiens, PBMC, 6 h) of more than 20 µM. Also, the half-inhibitory concentration (IC50) with IL-1β (setting [1]) was 6320 nM.
Taken in the same sequence, the figures for `CC(C)c1nn(CC(=O)N[C@@H]2COC[C@H](O)C2)c(=O)c2ccc(C(F)(F)F)cc12` (mixture of isomers) [Final Cpd X157] were more than 20 µM and 9820 nM.
Taken in the same sequence, the figures for `CC[C@@H](C)c1nn(CC(=O)Nc2ccc3nncn3c2)c(=O)c2ccc(C(F)(F)F)cc12` (single isomer, unassigned) [Final Cpd X12] were more than 20 µM and 113 nM.
Taken in the same sequence, the figures for `Cc1nnc2n1C[C@@H](NC(=O)Cn1nc(C(C)C)c3cc(C(F)(F)F)ccc3c1=O)CC2` (single isomer, unassigned) [Final Cpd X41] were more than 20 µM and 351 nM.
In the experiment with TNF (Homo sapiens, PBMC, 6 h), `CC[C@H](C)c1nn(CC(=O)Nc2ccc3nncn3c2)c(=O)c2ccc(C(F)(F)F)cc12` (single isomer, unassigned) [Final Cpd X43] returned an EC50 of more than 20 µM. Moreover, the IC50 in the experiment on IL-1β (setting [1]) was found to be 374 nM.
Taken in the same sequence, the figures for `CC(C)c1nn(CC(=O)N[C@H]2CC[C@H]2O)c(=O)c2ccc(C(F)(F)F)cc12` (single isomer, unassigned) [Final Cpd X124] were more than 20 µM and 2760 nM.
Turning to `CCN1CCC[C@H](NC(=O)Cn2nc(C(C)C)c3cc(C(F)(F)F)ccc3c2=O)C1=O` (single isomer, unassigned) [Final Cpd X129], the concentration for a half-maximal effect (EC50) with TNF (Homo sapiens, PBMC, 6 h) was more than 20 µM. The IC50 in the experiment on IL-1β (setting [1]) was 3070 nM.
Taken in the same sequence, the figures for `CC(C)c1nn(CC(=O)N[C@@H]2C[C@H](O)CN(C)C2)c(=O)c2ccc(C(F)(F)F)cc12` (single isomer, unassigned) [Final Cpd X130] were more than 20 µM and 3080 nM.
For `CC(=O)N1C[C@H](O)C[C@@H](NC(=O)Cn2nc(C(C)C)c3cc(C(F)(F)F)ccc3c2=O)C1` (single isomer, unassigned) [Final Cpd X138], in that order: more than 20 µM and 4020 nM.
Taken in the same sequence, the figures for `CCN1CC[C@@H](NC(=O)Cn2nc(C(C)C)c3cc(C(F)(F)F)ccc3c2=O)[C@@H](O)C1` (single isomer, unassigned) [Final Cpd X139] were more than 20 µM and 4280 nM.
With `CCN1CC[C@@H](NC(=O)Cn2nc(C(C)C)c3cc(C(F)(F)F)ccc3c2=O)[C@H](O)C1` (single isomer, unassigned) [Final Cpd X140], in the experiment on TNF (Homo sapiens, PBMC, 6 h), the half-maximal effective concentration (EC50) is more than 20 µM. The IC50 in the experiment with IL-1β (setting [1]) is 4610 nM.
Taken in the same sequence, the figures for `CCN1CC[C@H](NC(=O)Cn2nc(C(C)C)c3cc(C(F)(F)F)ccc3c2=O)[C@H](O)C1` (single isomer, unassigned) [Final Cpd X147] were more than 20 µM and 5940 nM.
With `CC(C)c1nn(CC(=O)N[C@@H]2CC[C@H]2O)c(=O)c2ccc(C(F)(F)F)cc12` (single isomer, unassigned) [Final Cpd X149], the half-maximal effective concentration (EC50) in the experiment on TNF (Homo sapiens, PBMC, 6 h) is more than 20 µM. The IC50 with IL-1β (setting [1]) was 6490 nM.
Taken in the same sequence, the figures for `CC(=O)N1C[C@H](O)C[C@H](NC(=O)Cn2nc(C(C)C)c3cc(C(F)(F)F)ccc3c2=O)C1` (single isomer, unassigned) [Final Cpd X150] were more than 20 µM and 7370 nM.
Taken in the same sequence, the figures for `CCN1C[C@@H](F)C[C@H](NC(=O)Cn2nc(C(C)C)c3cc(C(F)(F)F)ccc3c2=O)C1` (single isomer, unassigned) [Final Cpd X153] were more than 20 µM and 7630 nM.
Taken in the same sequence, the figures for `CC(=O)N1C[C@@H](O)C[C@H](NC(=O)Cn2nc(C(C)C)c3cc(C(F)(F)F)ccc3c2=O)C1` (single isomer, unassigned) [Final Cpd X159] were more than 20 µM and 10300 nM.
Consider `Cc1nnc2n1C[C@H](NC(=O)Cn1nc(C(C)C)c3cc(C(F)(F)F)ccc3c1=O)CC2` (single isomer, unassigned) [Final Cpd X163], for which the concentration giving a half-maximal response (EC50) with TNF (Homo sapiens, PBMC, 6 h) was more than 20 µM. Further, the IC50 in the experiment with IL-1β (setting [1]) is 15100 nM.
As to `CC(=O)N1C[C@@H](O)C[C@@H](NC(=O)Cn2nc(C(C)C)c3cc(C(F)(F)F)ccc3c2=O)C1` (single isomer, unassigned) [Final Cpd X164], the EC50 in the experiment on TNF (Homo sapiens, PBMC, 6 h) is more than 20 µM. Further, the IC50 with IL-1β (setting [1]) came to 15300 nM.
Taken in the same sequence, the figures for `CCN1CCC[C@@H](NC(=O)Cn2nc(C(C)C)c3cc(C(F)(F)F)ccc3c2=O)C1=O` (single isomer, unassigned) [Final Cpd X166] were more than 20 µM and 17500 nM.
Taken in the same sequence, the figures for `CCN1CC[C@H](NC(=O)Cn2nc(C(C)C)c3cc(C(F)(F)F)ccc3c2=O)[C@@H](O)C1` (single isomer, unassigned) [Final Cpd X172] were more than 20 µM and more than 20000 nM.
For `CCN1CCC[C@H](NC(=O)Cn2nc(C(C)C)c3cc(Br)ccc3c2=O)C1` (stereo in doubt) [X-1032], in that order: more than 20 µM and 31 nM.
Molecule `CCN1CC[C@H](O)[C@H](NC(=O)Cn2nc(C(C)C)c3cc(Br)ccc3c2=O)C1` (stereo in doubt) [X-1083] gave an EC50 in the experiment on TNF (Homo sapiens, PBMC, 6 h) of more than 20 µM. Moreover, in the experiment on IL-1β (setting [1]), the IC50 is 18 nM.
For `CCc1nn(CC(=O)Nc2ccc3nncn3c2)c(=O)c2ccc(Br)cc12` [Final Cpd 1], in that order: more than 20 µM and 115 nM.
Taken in the same sequence, the figures for `CCc1nn(CC(=O)Nc2ccncn2)c(=O)c2ccc(Br)cc12` [Final Cpd 2, 2-(6-bromo-4-ethyl-1-oxo-phthalazin-2-yl)-N-pyrimidin-4-yl-acetamide] were more than 10 µM and 190 nM.
In the case of `CCc1nn(CC(=O)Nc2ccc3nncn3c2)c(=O)c2ccc(C3CC3)cc12` [Final Cpd 3], in the experiment on TNF (Homo sapiens, PBMC, 6 h), a half-maximal response (EC50) required 14.9 µM. In the experiment on IL-1β (setting [1]), the half-maximal inhibitory concentration (IC50) came to 124 nM.
Taken in the same sequence, the figures for `CCc1nn(CC(=O)Nc2ccncn2)c(=O)c2ccc(C)cc12` [Final Cpd 4] were more than 10 µM and 2910 nM.
For `CCc1nn(CC(=O)Nc2ccncn2)c(=O)c2ccc(C3CC3)cc12` [Final Cpd 5], in that order: more than 10 µM and 420 nM.
For `CCc1nn(CC(=O)Nc2ccncn2)c(=O)c2ccc(C(C)C)cc12` [Final Cpd 6], in that order: more than 10 µM and 450 nM.
`CCc1ccc2c(=O)n(CC(=O)Nc3ccncn3)nc(CC)c2c1` [Final Cpd 7] came in with a half-maximal effective concentration (EC50) with TNF (Homo sapiens, PBMC, 6 h) of more than 10 µM. Moreover, in the experiment with IL-1β (setting [2]), the IC50 came out at 700 nM.
As for `CC(C)c1nn(CC(=O)Nc2ccc3nncn3c2)c(=O)c2ccc(C(F)(F)F)cc12` [Final Cpd 8], the concentration giving a half-maximal response (EC50) with TNF (Homo sapiens, PBMC, 6 h) turned out to be 13.7 µM. Also, the half-maximal inhibitory concentration (IC50) in the experiment with IL-1β (setting [1]) came to 76 nM.
For `CCc1nn(CC(=O)Nc2ccncn2)c(=O)c2ccc(C(F)(F)F)cc12` [Final Cpd 9], in that order: more than 10 µM and 580 nM.
For `COc1ccc2c(=O)n(CC(=O)Nc3ccncn3)nc(C(C)C)c2c1` [Final Cpd 10, 2-(4-isopropyl-6-methoxy-1-oxo-phthalazin-2-yl)-N-pyrimidin-4-yl-acetamide], in that order: more than 10 µM and 2320 nM.
For `CCc1nn(CC(=O)Nc2ccncn2)c(=O)c2ccc(OC)cc12` [Final Cpd 11], in that order: more than 10 µM and 1240 nM.
Molecule `CCc1nn(CC(=O)Nc2ccncn2)c(=O)c2ccccc12` [Final Cpd 12] returned an EC50 with TNF (Homo sapiens, PBMC, 6 h) of more than 20 µM. Moreover, in the experiment with IL-1β (setting [1]), the IC50 is more than 20000 nM.
Taken in the same sequence, the figures for `CCc1nn(CC(=O)Nc2cccnc2)c(=O)c2ccccc12` [Final Cpd 13] were more than 20 µM and more than 20000 nM.
Taken in the same sequence, the figures for `CCc1nn(CC(=O)NC2CC2)c(=O)c2ccccc12` [Final Cpd 14] were more than 20 µM and more than 20000 nM.
For `CC(C)c1nn(CC(=O)Nc2ccncn2)c(=O)c2ccc(C(F)(F)F)cc12` [Final Cpd 15], in that order: more than 20 µM and 176 nM.
In the experiment on TNF (Homo sapiens, PBMC, 6 h), `CCc1nn(CC(=O)Nc2ccncn2)c(=O)c2ccc(C(F)F)cc12` [Final Cpd 16] registered a 50% effective concentration (EC50) of more than 10 µM. Moreover, the IC50 with IL-1β (setting [2]) stood at 920 nM.
In the experiment with TNF (Homo sapiens, PBMC, 6 h), `CC(C)c1nn(CC(=O)Nc2ncc3nc[nH]c3n2)c(=O)c2ccc(C(F)(F)F)cc12` [Final Cpd X1, 2-(4-isopropyl-1-oxo-6-(trifluoromethyl)phthalazin-2(1H)-yl)-N-(9H-purin-2-yl)acetamide] came in with a half-maximal effective concentration (EC50) of more than 20 µM.
